Read-outs that look alike come from different tables or passages of the source.
What was measured:
[1] = versus phenylbutazone; Alpermann 1970, 1972; cited from earlier work
[2] = test system: yeast-induced fever in rats; assay: Antipyretic action: yeast-induced fever in rats; assay type: in vivo, rats (female Sprague-Dawley); conditions: for ED (1.5 degC): Rattus norvegicus, po, read-out: ED1.5 (dose which causes a maximum reduction in yeast-induced fever of 1.5° C.); for Therapeutic quotient LD50/ED2.5: yeast-induced fever, LD50 7 days
Experimental: The antipyretic action is determined by the influence of the compounds to be tested on yeast-induced fever in rats.
Hyperthermia is produced in female Sprague-Dawley rats (in groups of 5 animals; weight of each animal: 160 to 180 g) by subcutaneous injection (neck) of 10 ml/kg of a 20 percent strength aqueous brewer's yeast suspension (brewer's yeast "Heliosan"/Hefereformwerk Radolfzell). 24 hours after the yeast injection, the compounds to be tested are administered orally to the animals in a volume of liquid of 5 ml/kg, and a control group receives the corresponding amount of tapwater. The feed (Altromin®R, water ad libitum) was withdrawn from the rats 18 hours beforehand. The rats are kept at about 23° C.
The body temperature is recorded 1 hour before administration of the substance and at hourly intervals after administration of the substance.
[…] The body temperature is measured with a temperature probe (Tastomed H, Braun electronic).

[3] = in vivo; conditions: rat, po
[4] = test system: pain reaction provoked in rats by bending an inflamed ankle (AgNO3 arthritis); assay: animal or person; assay type: in vivo
Experimental: Based on the method of HOFFMEISTER et al. [Arzneim. Forsch., 24, (1974) 600], 0.2 ml of a 1% strength silver nitrate solution is injected into the ankle joint (inside) of the right hind paw of female Sprague-Dawley rats (each animal weighing about 160 to 180 g) under ether anaesthesia. The animals are kept at 24° C. and are fed Altromin®R and water ad libitum. After the AgNO3 injection, almost all the animals (90 to 95%) can be made to cry out by moderate bending of the ankle joint. All the animals reacting positively are collected into groups of 10 animals. The compounds to be tested are administered orally in a volume of liquid of 10 ml/kg immediately after administration of the AgNO3; the untreated control animals receive the corresponding amount of tapwater.
Over a period of 4 hours after administration of the substance, the number of animals reacting is determined at half hourly intervals.
The maximum percentage of the protected animals over a period of 4 hours after administration of the substance [relative to the number of animals in the control group reacting (=100%)] serves as a measure of the analgesic action.

[5] = test system: adjuvant arthritis in rats; assay: Antiarthritic action: adjuvant arthritis in rats (Mycobacterium butyricum)
Experimental: (§1) Biol. Med., 111 (1962) 544]}, on chronic inflammatory processes {Cotton pellet test on rats [Winter et al.: J. Pharmacol. exp. Therap., 141 (1963) 369]} and on adjuvant arthritis [based on the method of Perrine et al., Brit. J. Pharmacol., 21 (1963) 127] is determined.
The influence of the compounds to be tested on polyarthritis in rats caused by Mycobacterium butyricum (so-called "adjuvant arthritis") was determined using the experimental arrangement hereafter described: based on the method described by NEWBOULD and PERRINE et al. [NEWBOULD, B. B.; Brit. J. Pharmacol. 21, 127 (1963); and PERRINE, J. W. and TAKESUE, E. I.; Arch. int. Pharmacodyn., 174, 192 to 198 (1968)], so-called adjuvant arthritis, which manifests itself chiefly in a severe swelling of the tail (primary lesion) and of the paws (secondary lesion), is caused in rats by intradermal injection of a Mycobact. butyricum suspension in liquid paraffin into the base of the tail. Antiphlogistic agents inhibit this swelling reaction.

[6] = test system: carrageenin edema of the hind paw of rats; assay: Acute antiphlogistic action: carrageenin edema of the hind paw of rats after single oral administration; conditions: for ED50: Rattus norvegicus, po, read-out: ED50 (dose which causes a maximum edema inhibition of 50%); for Therapeutic quotient LD50/ED50: carrageenin edema, LD50 7 days oral; for Therapeutic quotient LD50/ED50 / Maximum inhibition of carrageenin edema within 7 hours after oral administration: rats
Experimental: as §1
The influence of the compounds to be tested on carrageenin edema of the hind paw of rats was determined as follows:
The rats are kept at 24° C.
The paw volume of each rat is determined (2 to 3 individual measurements in each case) before edema provocation and at hourly intervals for 7 hours after edema provacation. The average percentage paw swelling of each treated group determined at the specified times after the carrageenin injection is related to that of the untreated control group (=100%).
The maximum percentage edema inhibition serves as a measure of the antiphlogistic action.
The paw volume is determined plethysmometrically. Measuring principle: the volume of liquid displaced through the paw of the rat is recorded digitally via an electromechanical pressure transducer (Statham P 23 V, 0-200 mm Hg).
The doses indicated for the compounds tested were administered in a volume of liquid of 20 ml/kg.

[7] = test system: formation of granulation tissue after subcutaneous implantation of cotton; assay: Chronic antiphlogistic action: cotton pellet test (formation of granulation tissue) in rats; conditions: rats; for Therapeutic quotient LD50/ED20: cotton pellet test, LD50 7 days oral; for Inhibition of the formation of granulation tissue after treatment for 7 days: sodium salt
Experimental: as §1
Experimental procedure for investigating the influence of the compounds to be tested on the formation of granulation tissue after implantation of cotton in rats (so-called cotton pellet method):
1 cotton pellet (manufacturer: Messrs. Hartmann/Heidenheim; cotton pellets size 2, No. 4865/2) which weighs 13.0±0.5 mg and has been impregnated beforehand with 0.1 ml of a solution of 0.5 mg of penicillin G and 0.8 mg of streptomycin sulfate/1 ml of distilled water is in each case implanted subcutaneously into the shoulder-blade region, on both sides, of male Sprague-Dawley rats (groups of 8 animals each; weight of each animal: 150 to 170 g) under diethyl ether anaesthesia and under sterile conditions. The cut skin is closed by means of clamps.
The compounds to be tested (in the form of the sodium salt in aqueous solution) or the corresponding amount (5 ml/kg/day) of tapwater (=control group) are administered orally each day on seven successive days. On the eighth day, the animals are killed and the cotton granules are exposed carefully, that is to say preserving the fibrous tissue capsule, dried (15 hours at 120°) and weighed. By substracting the weight of the cotton pellets, the amount of newly formed granulation tissue is obtained.
The percentage reduction in the average granuloma dry weight of a treated group compared with the control group (=100%) serves as a measure of the antiproliferative action of a compound.

[8] = test system: rats; conditions: 7 days (Table 6)
[9] = AgNO3 arthritis pain, LD50 7 days oral, rats
[10] = rats, single oral dose 0.3 mg/kg

| Compound | ED (1.5 degC) ([2]; rats, perorally, single dose) | LD50 at 168 h [3] | ED50 [6] | Therapeutic quotient LD50/ED50 [6] | Maximum reduction in yeast-induced fever over a period of 7 hours [2, 10] | Therapeutic quotient LD50/ED2.5 ([2]; rats) | Maximum inhibition of carrageenin edema within 7 hours after oral administration ([6]; single oral dose 3.0 mg/kg) | further results |
| --- | --- | --- | --- | --- | --- | --- | --- | --- |
| Cc1c(Cl)cccc1Nc1cscc1C(=O)O [2-methyl-3-chlorophenyl derivative] |  |  |  |  |  |  |  | actions [1]: superior to those of phenylbutazone |
| O=C(O)c1cscc1Nc1c(Cl)cccc1Cl [Compound 1, 3-(2,6-dichloroanilino)thiophen-4-carboxylic acid] | 8.2 mg/kg | 120 mg/kg | 56 mg/kg | 2.1 |  |  |  | Maximum reduction in yeast-induced fever over a period of 7 hours ([2]; rats, single oral dose 1 mg/kg): 0 °C; Maximum reduction in yeast-induced fever over a period of 7 hours ([2]; rats, single oral dose 3 mg/kg): 0.6 °C; Maximum reduction in yeast-induced fever over a period of 7 hours ([2]; rats, single oral dose 10 mg/kg): 1.7 °C; Maximum reduction in yeast-induced fever over a period of 7 hours ([2]; rats, single oral dose 30 mg/kg): 2.1 °C; Therapeutic quotient LD50/ED50 [4, 9]: 0.86; therapeutic quotient LD50/ED25 [4, 9]: 4; ED25 ([4]; Rattus norvegicus, po, read-out: ED25 (dose which completely suppresses the pain reaction in 25% of the animals)): 30 mg/kg; ED50 ([4]; Rattus norvegicus, po, rats, perorally, at the time of maximum action, read-out: ED50 (dose which completely suppresses the pain reaction in 50% of the animals)): 140 mg/kg; Inhibition of the pain reaction ([4]; rats, single oral dose 3 mg/kg): 10%; Inhibition of the pain reaction ([4]; rats, single oral dose 20 mg/kg): 20%; Inhibition of the pain reaction ([4]; rats, single oral dose 100 mg/kg): 40%; Inhibition of the pain reaction ([4]; rats, single oral dose 200 mg/kg): 60%; actions [1]: superior to those of phenylbutazone; ED25 ([5]; Rattus norvegicus, po, 120 h, read-out: ED25 (inhibition of adjuvant arthritis of 25%)): 9 mg/kg/day; therapeutic quotient LD50/ED25 ([5]; adjuvant arthritis, LD50 7 days oral, rats): 13.3; Maximum inhibition of carrageenin edema within 7 hours after oral administration ([6]; single oral dose 10.0 mg/kg): 31%; Maximum inhibition of carrageenin edema within 7 hours after oral administration ([6]; single oral dose 100.0 mg/kg): 57% |
| Cc1ccc(Cl)c(Nc2cscc2CC(=O)O)c1Cl [Compound 5, 4-(2,6-dichloro-3-methylanilino)-3-thiophenacetic acid] | < 0.3 mg/kg | 8 mg/kg |  |  | 1.7 °C | > 26.7 |  | Therapeutic quotient LD50/ED20 [7]: 5; Inhibition of the formation of granulation tissue after treatment for 7 days ([7]; 7 x 1.0 mg/kg/day orally): 16%; Inhibition of the formation of granulation tissue after treatment for 7 days ([7]; 7 x 3.0 mg/kg/day orally): 26% |
| O=C(O)Cc1csc(Cl)c1Nc1c(Cl)cccc1Cl [Compound 10, 5-chloro-4-(2,6-dichloroanilino)-3-thiophenacetic acid] |  |  |  |  | 1.2 °C |  |  | ED (1.5 degC) [2]: 0.5 mg/kg; Maximum reduction in yeast-induced fever over a period of 7 hours ([2]; rats, single oral dose 0.6 mg/kg): 1.6 °C |
| Cc1cccc(Nc2cscc2CC(=O)O)c1Cl [Compound 7, 4-(2-chloro-3-methylanilino)-3-thiophenacetic acid] |  | > 20 mg/kg |  |  |  |  |  | Therapeutic quotient LD50/ED20 [7]: > 5.7; Inhibition of the formation of granulation tissue after treatment for 7 days ([7]; 7 x 3.0 mg/kg/day orally): 19%; Inhibition of the formation of granulation tissue after treatment for 7 days ([7]; 7 x 10.0 mg/kg/day orally): 27% |
| Cc1c(Cl)cccc1Nc1cscc1CC(=O)O [Compound 8, 4-(3-chloro-2-methylanilino)-3-thiophenacetic acid] |  | > 30 mg/kg | ~3 mg/kg | > 10 |  |  | 49% |  |
| Cc1cccc(Nc2cscc2C(=O)O)c1Cl [2-chloro-3-methylphenyl derivative] |  |  |  |  |  |  |  | actions [1]: superior to those of phenylbutazone |
| O=C(O)Cc1cscc1Nc1c(F)cccc1F [Compound 12, 4-(2,6-difluoroanilino)-3-thiophenacetic acid] | 0.9 mg/kg | > 30 mg/kg |  |  | 0.5 °C | > 33 |  | Maximum reduction in yeast-induced fever over a period of 7 hours ([2]; rats, single oral dose 1 mg/kg): 1.6 °C |
| Cc1cccc(C)c1Nc1cscc1CC(=O)O [Compound 9, 4-(2,6-dimethylanilino)-3-thiophenacetic acid] | 0.3 mg/kg | > 30 mg/kg |  |  | 1.5 °C | > 100 |  | Maximum reduction in yeast-induced fever over a period of 7 hours ([2]; rats, single oral dose 0.1 mg/kg): 1.0 °C; Maximum reduction in yeast-induced fever over a period of 7 hours ([2]; rats, single oral dose 1 mg/kg): 2.3 °C; LD50, lethal action after administration for 7 days [8]: > 30 mg/kg/day; Therapeutic quotient LD50/ED20 [7]: > 10; Inhibition of the formation of granulation tissue after treatment for 7 days ([7]; 7 x 3.0 mg/kg/day orally): 19% |
| Cc1cccc(Cl)c1Nc1ccsc1CC(=O)O [Compound 11, 3-(2-chloro-6-methylanilino)-2-thiophenacetic acid] |  | > 20 mg/kg | ~3 mg/kg | > 6.7 |  |  | 49% |  |
| Cc1cccc(Cl)c1Nc1cscc1CC(=O)O [Compound 4, 4-(2-chloro-6-methylanilino)-3-thiophenacetic acid] | ~0.3 mg/kg | > 20 mg/kg | 3 mg/kg | > 6.7 | 1.4 °C | > 66.7 | 50% | LD50, lethal action after administration for 7 days [8]: > 20 mg/kg/day |
| O=C(O)Cc1sccc1Nc1c(Cl)cccc1Cl [Compound 6, 3-(2,6-dichloroanilino)-2-thiophenacetic acid] | < 0.3 mg/kg | > 20 mg/kg | ~3 mg/kg | > 6.7 | 1.7 °C | > 66.7 | 52% | LD50, lethal action after administration for 7 days [8]: > 20 mg/kg/day |

Reference: patent US4272507A, “Phenylaminothiophenacetic acids, their synthesis, compositions and use” (priority 1978, dated 1981)
